Results reported in US9974825B2, “Peptides Des-[Asp1]-[Ala1], angiotensin-(1-7) agonist and pharmaceutical compositions for the treatment of diseases” (UNIVERSIDADE FEDERAL DE MINAS GERAIS, priority 2008, dated 2018).

Columns and labels:
[1] = test system: aorta rings of AT2−/− mice; assay: Vasorelaxation in precontracted aorta rings of AT2-/- mice; format: cell-based; details: precontracted with fenilefrine 0.1 μM
Experimental: This example describes the vasodilating effect of Ala^1-Ang-(1-7) and Ang-(1-7)—which is independent of the AT2 receptor—on the aorta of mice with genetic deletion of AT2 (AT2−/−) receptor.
The original rings of the descending thoracic aorta (2 mm), free from adipose tissue and connective tissue, were incubated in gasified solution (95% O2 and 5% CO2) of Krebs-Henseleit (mmol/L): NaCl 110.8, KCl 5.9, NaHCO3 25.0, MgSO4 1.07, CaCl2 2.49, NaH2PO4 2.33 and glucose 11.51, under a temperature of 37° C. and a 0.5 g tension, being equilibrated for 1 hour. The functional presence of endothelium was tested by its relaxing capacity produced by acetylcholine [ACh] (10 μM) on vessels precontracted with fenilefrine (0.3 μM). Only the vessels showing relaxation above 70% of extended contraction produced by fenilefrine were taken into account. Data on mechanical activity were isometrically obtained by using an amplified strength transducer (Model TMB-4; World Precision Instruments, Inc. Sarasota, Fla., USA) and converted to digital signal (AD16JR; World Precision Instruments, Inc.). […]
The aorta rings of AT2−/− mice were precontracted (approx. 1.0 g of tension) with a felinefrine submaximum concentration (0.1 μM). […] The vasodilating effects of Ala^1-Ang-(1-7) and Ang-(1-7) were expressed as a relaxation percentage relative to the maximum contraction induced by fenilefrine. […]

[2] = target: T1, angiotensin converter enzyme (ACE) (Rattus norvegicus, UniProt P47820); assay: Plasmatic ACE activity, fluorimetric method with Hip-His-Leu substrate; format: biochemical, Wistar rats; details: Wistar rat plasma
T1 construct: from tissue; host or cells: plasma of Wistar rats
T1 sequence (P47820 36-1238 limits assumed): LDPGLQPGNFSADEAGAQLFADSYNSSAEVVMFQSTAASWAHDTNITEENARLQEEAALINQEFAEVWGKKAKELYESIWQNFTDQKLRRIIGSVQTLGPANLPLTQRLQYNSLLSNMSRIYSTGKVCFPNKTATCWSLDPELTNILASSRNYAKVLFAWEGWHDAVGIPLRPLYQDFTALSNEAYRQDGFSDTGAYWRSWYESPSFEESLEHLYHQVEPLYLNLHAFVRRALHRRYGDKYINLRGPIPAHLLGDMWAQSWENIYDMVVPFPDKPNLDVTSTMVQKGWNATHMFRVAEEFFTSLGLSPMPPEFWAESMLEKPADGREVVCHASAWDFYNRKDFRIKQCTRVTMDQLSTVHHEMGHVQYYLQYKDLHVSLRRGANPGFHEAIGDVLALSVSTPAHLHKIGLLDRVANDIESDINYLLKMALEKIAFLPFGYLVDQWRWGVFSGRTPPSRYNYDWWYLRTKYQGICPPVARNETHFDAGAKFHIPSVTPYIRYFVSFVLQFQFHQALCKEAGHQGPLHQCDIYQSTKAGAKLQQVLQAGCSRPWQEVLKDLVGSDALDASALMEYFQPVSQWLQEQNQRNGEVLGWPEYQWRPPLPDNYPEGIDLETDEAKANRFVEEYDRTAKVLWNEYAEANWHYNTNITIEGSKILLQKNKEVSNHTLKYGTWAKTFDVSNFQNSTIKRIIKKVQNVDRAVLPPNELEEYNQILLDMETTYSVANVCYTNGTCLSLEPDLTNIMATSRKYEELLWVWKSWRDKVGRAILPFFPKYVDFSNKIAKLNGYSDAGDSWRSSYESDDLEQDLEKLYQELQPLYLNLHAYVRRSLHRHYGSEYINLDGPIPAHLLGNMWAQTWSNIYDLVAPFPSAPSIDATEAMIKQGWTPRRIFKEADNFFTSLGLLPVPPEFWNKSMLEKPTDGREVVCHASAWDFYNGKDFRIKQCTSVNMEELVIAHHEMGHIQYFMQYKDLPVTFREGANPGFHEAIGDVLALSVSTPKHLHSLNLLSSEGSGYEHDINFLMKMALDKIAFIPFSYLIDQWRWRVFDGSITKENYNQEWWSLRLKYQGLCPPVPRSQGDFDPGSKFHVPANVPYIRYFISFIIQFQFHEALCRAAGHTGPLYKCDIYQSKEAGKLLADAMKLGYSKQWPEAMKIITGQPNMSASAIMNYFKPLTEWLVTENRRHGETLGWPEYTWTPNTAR
Experimental: The plasmatic activity of ACE was measured by the fluorimetric method using Hip-His-Leu as substrate, as previously described (Santos, R. A. S. et al., Hypertension, 7:244-52, (1985)). Plasma aliquots (10 μL) of Wistar rats were incubated with a […] solution containing a 1 mM substrate (Hip-His-Leu) and 0.4 M of sodium borate, 0.9 M NaCl (pH=8.3) for 15 minutes at 37° C. The reaction was halted by adding 1.2 mL of NaOH at 0.34 M and […] of orthoftaldehyde (20 mg/mL in methanol). After 10 minutes at environment temperature, […] of HCl at 3 N was added. Later on, after a 5-minute 800×g centrifugation, the floating solution fluorescence was measured (a 365 nm excitation and a 495 nm emission). The blank was prepared by inverting the addition order of plasma and NaOH. A 0.5 to 20 nmol curve, containing the product (His-Leu) resulting of the substrate break (Hip-His-Leu) by ACE plasmatic activity, was prepared in each assay. In order to test the inhibition effect of ACE by the PEPTIDEs Ang-(1-7) and Ala^1-Ang-(1-7), 3.3×10^−7 or 3.3×10^−6 M of each PEPTIDE was added before the plasma addition. […] The percentage of enzymatic activity inhibition was estimated in function of the maximum activity obtained.

Substance | vasodilating effect [1] | ACE inhibition ([2]; peptide 3.3×10^−6 M) [%] | ACE inhibition ([2]; peptide 3.3×10^−7 M) [%]
Ala^1-Arg^2-Val^3-Tyr^4-Ile^5-His^6-Pro^7 [Ala^1-Ang-(1-7)] | preserved | 98.3 | 76.3
Asp^1-Arg^2-Val^3-Tyr^4-Ile^5-His^6-Pro^7 [Ang-(1-7)] | preserved | 85.8 | 42.4
